Data reported in patent publication US20140227173A1, “CANCER TREATMENT WITH GAMMA-SECRETASE INHIBITORS” (The Johns Hopkins University, priority 2006, published 2014).

How the values were obtained:
DAOY:NICD2 [1] = assay: Flow cytometric analysis of CD133-positive fraction; type: cell-based; settings: DAOY:NICD2 expressing truncated Notch2; 2 μM
Method: Consistent with the hypothesis that Notch is important in CSC, gain or loss of pathway activity modulated the size of the CD133-expressing stem-like subpopulation (FIG. 4B). This fraction was elevated to 17.2% in DAOY cells stably transfected with a plasmid encoding the constitutively active Notch2 intracellular domain (DAOY:NICD2). In contrast, Notch pathway inhibition using GSI-18, a potent sulfonamide GSI (21), reduced the CD133-positive stem-like fraction […] to 3.3% (p<0.01). […] 2 μM GSI-18 was used in these experiments, as both mRNA and protein levels of the Notch pathway target Hes1 are reduced over 70% after 48 hours by this concentration of the drug (FIG. 4E).
The DAOY, PFSK, D283 and D425 Med cell lines were obtained from the American Type Culture Collection. The low-passage MB line MB2 was derived from a tumor resected at Johns Hopkins Hospital. […] Cell mass was measured using CellTITER assays according to the manufacturer's instructions (Promega, Madison, Wis.). Cell number and viability were assessed using the Guava PCA and Viacount reagent according to instructions (Guava Technologies, Heyward, Calif.). Soft agar assays were performed as previously described (15) and scored either manually after 4 weeks or using as automated reader after 6 weeks. […] Soft agar assays were performed as previously described, with colonies counted using an automated reader (15). […]

PFSK = assay: as above; type: cell-based; settings: 2 μM, p<0.01
Text: (§1) The effects of Notch on the CD133-positive CSC subpopulation were first examined. Singh and colleagues have shown that only CD133-positive MB and glioblastoma cells are able to form multipotent neurosphere clones or tumor xenografts (6, 12). Another type of brain tumor, ependymoma, also appears to contain a small fraction of CD133-positive cells uniquely capable of initiating tumor xenografts (9). […] The D283Med and D425Med lines, which grow in suspension, contained higher percentages of CD133 positive cells. Sorting of DAOY cultures using magnetic beads coated with antibodies specific for CD133 generated an enriched population in which 30% of cells expressed the stem cell marker, and a negative population in which less than 1% of cells were CD133-positive. […] Thus Notch signaling appears to be especially active in CSC, raising the possibility that inhibition of this pathway may target the CSC population.
(§2) The DAOY, PFSK, D283 and D425 Med cell lines were obtained from the American Type Culture Collection. The low-passage MB line MB2 was derived from a tumor resected at Johns Hopkins Hospital. For treatment studies, cell were plated and allowed to grow overnight in MEM (Invitrogen, Carlsbad, Calif.) containing 10% FBS, then media was replaced the next morning with low serum (0.5% FBS) MEM containing GSI dissolved in DMSO. RNA and protein extractions, and all cell-based assays, were performed 48 hours after drug application unless otherwise noted. All experiments with error bars were performed in triplicate and shown as mean values with standard error unless otherwise noted. Cell mass was measured using CellTITER assays according to the manufacturer's instructions (Promega, Madison, Wis.). Cell number and viability were assessed using the Guava PCA and Viacount reagent according to instructions (Guava Technologies, Heyward, Calif.). Soft agar assays were performed as previously described (15) and scored either manually after 4 weeks or using as automated reader after 6 weeks. The constitutively active Akt stable cell line was made by transfecting DAOY cells with myristolated Akt (pCB6-IMy-Akt-HA) or control (pCB6+) plasmids (kind gifts from Susan J. Baker) and selecting and maintaining clones in 0.8 mg/ml G418. Soft agar assays were performed as previously described, with colonies counted using an automated reader (15).
(§3) Flow cytometric analysis of S-phase fraction and cell cycle kinetics was performed using a FACSCalibur (Becton Dickinson, San Jose, Calif.) with CELL Quest, version 3.3 software (15). CD133 studies were performed using the same instrument, with antibodies from Miltenyi (Miltenyi Biotec, Auburn, Calif.) according to the manufacturer's instructions. Cells expressing levels of CD133 higher than those seen in IgG controls were considered positive. For analyses of side population, cells (10^6/ml) were incubated with Hoechst 33342 (3 μM, Molecular Probes, Carlsbad, Calif.) for 90 minutes at 37° C. in DMEM containing 2% FBS. Prior to analysis, cells were washed and resuspended in 2 μg/ml PI (Sigma, St. Louis, Mo.). Cells were analyzed on a LSR flow cytometer equipped with 424/44 nm band pass and 670 nm long pass optical filters (Omega Optical, Brattleboro, Vt.). To ensure proper identification of SP cells, cells were incubated as above with the addition of 50 μM verapamil (Sigma).

DAOY [2] = assay: as above; type: cell-based; settings: 2 μM, 48 hours
Text: as §1, §2, §3

D283 = assay: as above; type: cell-based; settings: 2 μM
Text: as §1, §2, §3

D425 = assay: as above; type: cell-based; settings: 2 μM
Text: as §1, §2, §3

Capan-1 = assay: Colony formation in soft agar (clonogenicity); type: cell-based, human
Text: Specificity of the RNA interference is confirmed by downregulation of Notch1 transcript levels with the specific siRA, but not with the scrambled controls. […] Bar graphs represent colony counts at two weeks, with mean and standard deviations calculated from triplicate experiments.
Bar graphs represent colony counts at two weeks, with mean and standard deviations calculated from triplicate experiments.
(Top) Experimental scheme illustrating pre-treatment of pancreatic cancer cell lines with GSI-18, prior to plating for soft agar assays and subcutaneous injection in athymic mice. Treatment for 24 hours with GSI-18 or vehicle is followed by recovery in full serum for a further 24 hours minus the drug. Equal numbers of viable cells from the control and treated groups are then plated for colony assays in soft agar, or injected in nude mice. Of note, during the in vitro or in vivo assays, no further drug is administered. […] The dosage required for significant inhibition of clonogenicity varies between 2 μM (Capan-1) to 5 μM (E3LZ10.7). Bar graphs represent colony counts at two weeks, with mean and standard deviations calculated from triplicate experiments. (Left) Pre-treatment with GSI-18 inhibits tumorigenicity of Panc-1 pancreatic cancer cell line in athymic mice. […] Error bars represent standard deviation of five mice per arm.

DAOY [3] = assay: Tumor engraftment in mice treated intraperitoneally after subcutaneous cell injection; type: in vivo, athymic nude mice; settings: 0.5 mg i.p. in DMSO for five consecutive days from day of xenograft initiation, four mice
Method: (§4) FIG. 8G is a graph plotting xenograft volume against number of days following injection of DAOY and DAOY:NIC2D cells in athymic nude mice, which were either treated with vehicle or 0.5 mg i.p. of GSI-18 for 5 consecutive days following subcutaneous tumor injection.
(§5) As a test of the requirement for ongoing Notch activity during tumor engraftment, animals were treated with GSI-18 after subcutaneously injecting DAOY and DAOY:NICD2 cells into their left and right flanks. A treatment group of four mice received intraperitoneal injections containing 0.5 mg GSI-18 in DMSO for five consecutive days, beginning on the day of xenograft initiation, while the control group was treated with vehicle alone.

DAOY:NICD2 [4] = assay: as above; type: in vivo, athymic nude mice; settings: 0.5 mg i.p. for five consecutive days
Method: as §4, §5

DAOY [5] = assay: Nestin immunocytochemistry, strongly nestin-positive fraction; type: cell-based; settings: 2 μM, 48 hours

O=S(=O)(NC1C2CCC1Cc1ccccc1C2)c1cccs1 (stereo not drawn) [GSI-18, [11-endo]-N-(5,6,7,8,9,10-hexahydro-6,9-methanobenzo[α][8]annulen-11-yl)-thiophene-2-sulfonamide] was tested, and the “sensitivity of CD133-positive fraction to the inhibitor” value (DAOY:NICD2 [1]) was “insensitive to GSI-18”, the “fold reduction in the percentage of CD133-positive cells” value (PFSK) was 4.8 fold and the “fold reduction of CD133-positive stem-like fraction” value (DAOY [2]; p<0.01) was 3 fold. For the same compound, the “CD133-positive stem-like fraction after treatment” value (DAOY [2]; untreated 9.9%) was 3.3%, the “decrease in the percentage of CD133-positive cells” value (D283) was “less pronounced” and the “decrease in the percentage of CD133-positive cells” value (D425) was “less pronounced”. The “colony formation following pre-treatment” value (Capan-1; 24 hours pre-treatment, 24 hours recovery minus drug, colony counts at two weeks) was “Significant inhibition of colony formation”, the “clonogenicity, colony formation in soft agar” value (Capan-1; colony counts at two weeks) was “significant inhibition of clonogencity” and the “dosage required for significant inhibition of clonogenicity” value (Capan-1; pre-treatment) was 2 µM. For the same compound, the “engraftment in treated animals” value (DAOY [3]) was “failed to engraft in three of the four”, the “tumor development in treated animals” value (DAOY:NICD2 [4]) was “Tumors also developed” and the “fold reduction of strongly nestin-positive fraction” value (DAOY [5]; p<0.01) was 4 fold. The “strongly nestin-positive fraction after treatment” value (DAOY [5]; untreated 10%) was 2.4%.
